Test results taken from PubChem BioAssay AID248 (DTP/NCI, 2004).
Inconclusive results and toxic doses are left out. Rule as the data show it: active = T/C of 150% or more; inactive = T/C below 125%.

Test system: L1210 leukemia ip in BDF1 mice, survival T/C
Assay: NCI In Vivo Anticancer Drug Screen. Data for tumor model L1210 Leukemia (intraperitoneal) in B6D2F1 (BDF1) mice
Details: endpoint: mean survival time, higher = longer survival
Outline: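 Mice bearing the transplanted tumor received compound or vehicle. Survival of the treated group was divided by that of the vehicle-treated control group to give the ratio.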

[1] = dose: 100.0 mg/kg/injection, schedule: Q01DX009 (ip), vehicle: saline with Tween-80
[2] = dose: 100.0 mg/kg/injection, schedule: Q04DX003 (ip), vehicle: saline with Tween-80
[3] = dose: 200.0 mg/kg/injection, schedule: Q04DX003 (ip), vehicle: saline with Tween-80
[4] = dose: 400.0 mg/kg/injection, schedule: Q04DX003 (ip), vehicle: saline with Tween-80
[5] = dose: 100.0 mg/kg/injection, schedule: Q01DX001 (ip), vehicle: saline
[6] = dose: 200.0 mg/kg/injection, schedule: Q01DX001 (ip), vehicle: saline
[7] = dose: 1.56 mg/kg/injection, schedule: Q01DX009 (ip), vehicle: saline
[8] = dose: 6.25 mg/kg/injection, schedule: Q01DX009 (ip), vehicle: saline
[9] = dose: 12.5 mg/kg/injection, schedule: Q01DX009 (ip), vehicle: saline
[10] = dose: 50.0 mg/kg/injection, schedule: Q01DX001 (ip), vehicle: saline
[11] = dose: 100.0 mg/kg/injection, schedule: Q01DX009 (ip), vehicle: Klucel (hydroxypropylcellulose) (HPC)
[12] = dose: 200.0 mg/kg/injection, schedule: Q01DX009 (ip), vehicle: Klucel (hydroxypropylcellulose) (HPC)
[13] = dose: 100.0 mg/kg/injection, schedule: Q04DX003 (ip), vehicle: saline
[14] = dose: 200.0 mg/kg/injection, schedule: Q04DX003 (ip), vehicle: saline
[15] = dose: 400.0 mg/kg/injection, schedule: Q01DX001 (ip), vehicle: saline
[16] = dose: 400.0 mg/kg/injection, schedule: Q04DX003 (ip), vehicle: saline
[17] = dose: 100.0 mg/kg/injection, schedule: Q04DX003 (ip), vehicle: Klucel (hydroxypropylcellulose) (HPC)
[18] = dose: 200.0 mg/kg/injection, schedule: Q04DX003 (ip), vehicle: Klucel (hydroxypropylcellulose) (HPC)
[19] = dose: 400.0 mg/kg/injection, schedule: Q04DX003 (ip), vehicle: Klucel (hydroxypropylcellulose) (HPC)
[20] = dose: 3.13 mg/kg/injection, schedule: Q01DX009 (ip), vehicle: saline
[21] = dose: 12.5 mg/kg/injection, schedule: Q01DX009 (ip), vehicle: saline with Tween-80

Measured: T/C

CC(C)CCS(=O)CCC(C)C
inactive: [1] 96 % of control | [2] 105 % of control | dose: 200.0 mg/kg/injection, schedule: Q01DX009 (ip), vehicle: saline with Tween-80 96 % of control | [3] 120 % of control | dose: 400.0 mg/kg/injection, schedule: Q01DX009 (ip), vehicle: saline with Tween-80 100 % of control | [4] 97 % of control

C/C(=C\Cn1ccccc1=O)CCC(=O)O
inactive: dose: 100.0 mg/kg/injection, schedule: Q01DX009 (ip), vehicle: water 100 % of control | dose: 100.0 mg/kg/injection, schedule: Q04DX003 (ip), vehicle: other 94 % of control | dose: 200.0 mg/kg/injection, schedule: Q01DX009 (ip), vehicle: water 97 % of control | dose: 200.0 mg/kg/injection, schedule: Q04DX003 (ip), vehicle: other 98 % of control | dose: 400.0 mg/kg/injection, schedule: Q01DX009 (ip), vehicle: water 96 % of control | dose: 400.0 mg/kg/injection, schedule: Q04DX003 (ip), vehicle: other 89 % of control

CNC(=O)c1ccc(/C=C/c2c[nH]c3ccccc23)[n+](C)c1
inactive: [5] 97 % of control | [6] 95 % of control

Cc1c2cccc(Sc3ccccc3)c2c2c3c(cccc13)[S+](c1ccccc1)C2 (stereo not given)
inactive: [7] 104 % of control | dose: 3.12 mg/kg/injection, schedule: Q01DX009 (ip), vehicle: saline 101 % of control | [8] 105 % of control | dose: 12.5 mg/kg/injection, schedule: Q01DX001 (ip), vehicle: saline with Tween-80 97 % of control | dose: 12.5 mg/kg/injection, schedule: Q01DX001 (ip), vehicle: saline 100 % of control | [9] 91 % of control | dose: 25.0 mg/kg/injection, schedule: Q01DX001 (ip), vehicle: saline 93 % of control | dose: 50.0 mg/kg/injection, schedule: Q01DX001 (ip), vehicle: saline with Tween-80 95 % of control | [10] 86 % of control

O=C(Nc1cc([N+](=O)[O-])ccc1O)c1ccc(Cl)c(Cl)c1
inactive: [11] 104 % of control | [12] 95 % of control | dose: 400.0 mg/kg/injection, schedule: Q01DX009 (ip), vehicle: Klucel (hydroxypropylcellulose) (HPC) 93 % of control

CCC[CH2][Sn]([CH2]CCC)([CH2]CCC)[N]=C=S
inactive: dose: 0.39 mg/kg/injection, schedule: Q01DX001 (ip), vehicle: saline with Tween-80 89 % of control | dose: 0.78 mg/kg/injection, schedule: Q01DX001 (ip), vehicle: saline with Tween-80 93 % of control | dose: 1.56 mg/kg/injection, schedule: Q01DX001 (ip), vehicle: saline with Tween-80 105 % of control

CC(C)(CC(=O)O)c1ccccc1
inactive: [5] 96 % of control | dose: 100.0 mg/kg/injection, schedule: Q01DX009 (ip), vehicle: saline 104 % of control | [13] 100 % of control | [6] 106 % of control | dose: 200.0 mg/kg/injection, schedule: Q01DX009 (ip), vehicle: saline 101 % of control | [14] 104 % of control | [15] 96 % of control | dose: 400.0 mg/kg/injection, schedule: Q01DX009 (ip), vehicle: saline 96 % of control | [16] 91 % of control

O=C(Nc1ccc(S(=O)(=O)NC2CCCCC2)cc1)OC1CCCCCCC1
inactive: [5] 89 % of control | [6] 94 % of control | [15] 96 % of control

COC(=O)C1C2C=CC(C3CCC23)C1C(=O)OC (stereo not given)
inactive: [2] 92 % of control | [3] 91 % of control | [4] 94 % of control

OC1Cn2cc(Br)c[n+]2C1 (stereo not given)
inactive: [10] 94 % of control | [5] 116 % of control | [6] 102 % of control | [15] 96 % of control

COc1ccc2c3csc4ccccc4c-3nc2c1
inactive: [9] 98 % of control | dose: 12.5 mg/kg/injection, schedule: Q04DX003 (ip), vehicle: saline 95 % of control | dose: 25.0 mg/kg/injection, schedule: Q01DX009 (ip), vehicle: Klucel (hydroxypropylcellulose) (HPC) 111 % of control | dose: 25.0 mg/kg/injection, schedule: Q01DX009 (ip), vehicle: saline 98 % of control | dose: 25.0 mg/kg/injection, schedule: Q04DX003 (ip), vehicle: saline 95 % of control | dose: 50.0 mg/kg/injection, schedule: Q01DX009 (ip), vehicle: Klucel (hydroxypropylcellulose) (HPC) 100 % of control | dose: 50.0 mg/kg/injection, schedule: Q04DX003 (ip), vehicle: saline 94 % of control

O=C(NNc1ccc([N+](=O)[O-])cc1)c1ccccc1
inactive: [17] 94 % of control | [18] 94 % of control | [19] 100 % of control

CNCCNCC(Cc1ccccc1)c1ccccc1 (stereo not given)
inactive: dose: 25.0 mg/kg/injection, schedule: Q04DX002 (ip), vehicle: saline 107 % of control | dose: 50.0 mg/kg/injection, schedule: Q04DX002 (ip), vehicle: saline 97 % of control | dose: 100.0 mg/kg/injection, schedule: Q04DX002 (ip), vehicle: saline 97 % of control

O=C(Nc1ccccc1)c1nccc2ccccc12
inactive: dose: 100.0 mg/kg/injection, schedule: Q01DX001 (ip), vehicle: steriod suspending solution 117 % of control | dose: 200.0 mg/kg/injection, schedule: Q01DX001 (ip), vehicle: steriod suspending solution 109 % of control | dose: 400.0 mg/kg/injection, schedule: Q01DX001 (ip), vehicle: steriod suspending solution 108 % of control

COc1ccc(C)cc1CCCO
inactive: [10] 101 % of control | [5] 101 % of control | [6] 101 % of control | [15] 93 % of control

O=C(Cc1ccccc1)c1ccc(O)cc1O
inactive: [10] 104 % of control | [5] 104 % of control | dose: 100.0 mg/kg/injection, schedule: Q04DX003 (ip), vehicle: gum acacia 113 % of control | [6] 102 % of control | dose: 200.0 mg/kg/injection, schedule: Q04DX003 (ip), vehicle: gum acacia 98 % of control | [15] 102 % of control | dose: 400.0 mg/kg/injection, schedule: Q04DX003 (ip), vehicle: gum acacia 101 % of control

CCCCC[CH2][Sn]([I])([CH2]C)[CH2]C
inactive: [7] 95 % of control | [20] 90 % of control

C/C=C/C[P+](c1ccccc1)(c1ccccc1)c1ccccc1
inactive: [20] 98 % of control | [8] 110 % of control | [21] 106 % of control | [9] 98 % of control | dose: 15.0 mg/kg/injection, schedule: Q01DX001 (ip), vehicle: saline 101 % of control | dose: 30.0 mg/kg/injection, schedule: Q01DX001 (ip), vehicle: saline 114 % of control

COc1cc2c(cc1[N+](=O)[O-])C(=O)CCCC2
inactive: dose: 50.0 mg/kg/injection, schedule: Q01DX009 (ip), vehicle: saline with Tween-80 88 % of control | [1] 92 % of control

Cc1cc(C)cc(OCC2C(COC(=O)c3cccc(Cl)c3)c3ccccc3N2C)c1 (stereo not given)
inactive: [11] 89 % of control | [12] 94 % of control

COc1ccc(C(CC(=O)O)c2ccccc2)cc1 (stereo not given)
inactive: [5] 94 % of control | [6] 93 % of control | [15] 100 % of control

Nc1nc(=O)n(CCCOc2ccccc2)cc1-c1ccc(Cl)c(Cl)c1
inactive: dose: 100.0 mg/kg/injection, schedule: Q01DX001 (ip), vehicle: gum acacia 99 % of control | dose: 200.0 mg/kg/injection, schedule: Q01DX001 (ip), vehicle: gum acacia 94 % of control

[C-]1=CC2C=CC1C1[C-]=CC21.[Cl][Pd][Cl] (stereo not given)
inactive: dose: 3.13 mg/kg/injection, schedule: Q01DX009 (ip), vehicle: saline with Tween-80 103 % of control | dose: 6.25 mg/kg/injection, schedule: Q01DX009 (ip), vehicle: saline with Tween-80 98 % of control | [21] 100 % of control

O=C/C=C/Nc1ccccc1
inactive: [13] 105 % of control | [14] 108 % of control | [16] 100 % of control

Oc1c(Br)cc(C(c2cc(Br)c(O)c(Br)c2)c2ccccn2)cc1Br
inactive: [17] 104 % of control | [18] 100 % of control | [19] 104 % of control

COc1ccc(OC)c2ncccc12
inactive: [5] 104 % of control

O=C(O)c1ccccc1C(=O)c1ccc(F)cc1
inactive: [5] 96 % of control | [6] 102 % of control | [15] 93 % of control
